Assay results taken from PubChem BioAssay AID624452 (Sanford-Burnham Center for Chemical Genomics, 2012).

Tested on: human liver microsomes, compound remaining, LC-MS
Assay: human microsomal compound turnover – biochemical, with and without NADPH, LC-MS, set 2, ADME assay (AID 624452);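 further: compound left measured after 60 min microsomal incubation at 37 °C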
Conditions: at 1 µM; for percent remaining without NADPH: measured here: stability without NADPH control

Compound | percent remaining with NADPH [%] | percent remaining without NADPH [%]
O=C(CCNS(=O)(=O)c1cccc2nsnc12)N1CCN(c2ccccn2)CC1 | 3.36 | 71.8
O=C1CCCC2=C1C1(CCCC1)N=C(Nc1nc3ccccc3o1)N2 | 11.2 | 78.1
CC1CCCN(C(C(=O)Nc2ccc3c(c2)OCCO3)c2ccccc2)C1 (stereo not drawn) | 4.43 | 79.7
O=S1(=O)Nc2c(ccc3cccnc23)-c2ccccc21 | 64.4 | 68
Cc1ccc(NS(=O)(=O)c2ccc3c(c2)CCC(=O)N3)cc1C | 6.36 | 66.3

Second part, the compound after the results:

percent remaining with NADPH [%] | percent remaining without NADPH [%] | Compound
0.99 | 73.4 | Cc1ccnc(NC(=O)CCCOc2cc(=O)n(C)c3ccccc23)c1
27.3 | 64.4 | COc1ccc(Sc2ccc(NC(=O)c3ccccc3Cl)cc2C#N)cc1
2.07 | 75.9 | Cc1ccc(C)c(NS(=O)(=O)c2cc(C(=O)Nc3ccccc3-c3ccccc3)ccc2Cl)c1
20.3 | 75.6 | CCc1oc2ccccc2c1C(=O)c1cc(Br)c(O)c(Br)c1
